Drawing on patent publication US20240398868A1 (GEL4MED, INC., priority 2020, published 2024), this text covers net charge for one substance.

This data set in a line: Net charge and isoelectric point of peptide. In kind it is physicochemical. The following applies: pH 7. An excerpt: The peptide may be purified. For example, the peptide may be lyophilized. […] Other peptides are within the scope of the disclosure.
Exemplary peptides having a charge of +5 to +9 include […](d)[…], […](d)[…], and […](d)[…]. In other embodiments, the purified peptide may be substantially neutral. […] Net charge may be selected by peptide design. Design of electrostatic charge in the peptide hydrogel may allow control of charge interaction with cell membrane and proteins.

Take VEVSVSVEV(d)PPTEVSVEVEV: the net charge result is “net negative charge”.
